In article PMC8226839, “New Perspectives in the Antimicrobial Activity of the Amphibian Temporin B: Peptide Analogs Are Effective Inhibitors of Candida albicans Growth” (Journal of Fungi, 2021):
Square brackets hold non-standard residues; d marks the D form. Peptide text beside a SMILES is read from it.

Tested on: sheep erythrocytes
Settings: 50 μg per disk, Columbia blood agar plates, 37 °C, 24 h

SMILES | hemolysis
CC[C@H](C)[C@H](NC(=O)[C@@H]1CCCN1C(=O)[C@H](CC(C)C)NC(=O)[C@H](CC(C)C)NC(=O)[C@@H](CCCCN)NC(=O)[C@H](N)CCCCN)C(=O)N[C@H](C(=O)N[C@H](CCCCN)C(=O)N[C@@H](CC(N)=O)C(=O)N[C@@H](CC(C)C)C(=O)N[C@@H](CC(C)C)C(=O)N[C@H](CCCCN)C(=O)N[C@@H](CO)C(=O)N[C@@H](CC(C)C)C(=O)N[C@@H](CC(C)C)C(N)=O)C(C)C [D-Lys_TB_KKG6K] (H-[dK][dK]LLPIV[dK]NLL[dK]SLL-NH2) | did not induce the hemolysis
CC[C@H](C)[C@H](NC(=O)[C@@H]1CCCN1C(=O)[C@H](CC(C)C)NC(=O)[C@H](CC(C)C)NC(=O)[C@H](CCCCN)NC(=O)[C@@H](N)CCCCN)C(=O)N[C@H](C(=O)N[C@@H](CCCCN)C(=O)N[C@@H](CC(N)=O)C(=O)N[C@@H](CC(C)C)C(=O)N[C@@H](CC(C)C)C(=O)N[C@@H](CCCCN)C(=O)N[C@@H](CO)C(=O)N[C@@H](CC(C)C)C(=O)N[C@@H](CC(C)C)C(N)=O)C(C)C [TB_KKG6K] (H-KKLLPIVKNLLKSLL-NH2) | did not induce the hemolysis
